In this assay the test system is laccase. To be noted: 0.10 M citrate-phosphate buffer pH 2.5, room temperature; ABTS 0.05-1.00 mM; partially purified enzyme.

In publication PMC4544649, “A psychrotolerant strain of Serratia marcescens (MTCC 4822) produces laccase at wide temperature and pH range” (AMB Express, 2015) one finds Km data, which are given here for one molecule.

As a reminder, the Km is the substrate concentration at which the rate is half of its maximum.

Consider `CCn1c(=NN=c2sc3cc(S(=O)(=O)O)ccc3n2CC)sc2cc(S(=O)(=O)O)ccc21` [ABTS, 2, 2'-azino-bis (3-ethylbenzothiazoline-6-sulphonic acid)], for which the Km was determined as 100 µM.
